The record followed here is US11540517B2, “Active compound combinations having insecticidal/acaricidal properties” (Bayer Aktiengesellschaft, priority 2017, dated 2023).

Common to all, as to assay type: in vivo
The subject of one test is Tetranychus urticae. As to the kind of experiment: Tetranychus urticae - spray test OP-resistant. Conditions: mortality. As to the method: (§1) The expected efficacy of a given combination of two compounds is calculated as follows (see Colby, S. R., “Calculating Synergistic and antagonistic Responses of Herbicide Combinations”, Weeds 15, pp. 20-22, 1967): • If • X is the efficacy expressed in % mortality of the untreated control for test compound A at a concentration of m ppm respectively m g/ha, • Y is the efficacy expressed in % mortality of the untreated control for test compound B at a concentration of n ppm respectively n g/ha, • E is the efficacy expressed in % mortality of the untreated control using the mixture of A and B at m and n ppm respectively m and n g/ha, • then is
(§2) [formula] • If the observed insecticidal efficacy of the combination is higher than the one calculated as “E”, then the combination of the two compounds is more than additive, i.e. there is a synergistic effect.
Tetranyechus urticae—Spray Test OP-Resistant
Solvent: 78.0 parts by weight acetone
1.5 parts by weight dimethylformamide
Emulsifier: alkylarylpolyglycol ether
To produce a suitable preparation of active compound, 1 part by weight of active compound is mixed with the stated amount of solvents and is diluted with water, containing an emulsifier concentration of 1000 ppm, to the desired concentration. Further test concentrations are prepared by dilution with emulsifier containing water.
French bean (Phaseolus vulgaris) leaf disks infected with all instars of the two spotted spidermite (Tetranychus urticae), are sprayed with a preparation of the active ingredient of the desired concentration.
After the specified period of time, mortality in % is determined. 100% means all spider mites have been killed and 0% means none of the spider mites have been killed. The mortality values determined thus are recalculated using the Colby-formula (see above).

Another test deals with Spodoptera frugiperda. The test can be described thus: Spodoptera frugiperda - spray test. The conditions noted are these: mortality. As to the method:
as §1, §2
Spodoptera frugiperda—Spray Test
(§3) Solvent: 7 parts by weight of dimethylformamide
(§4) Emulsifier: alkylaryl polyglycol ether
(§5) To produce a suitable preparation of active compound, 1 part by weight of active compound is mixed with the stated amount of solvent and is diluted with water, containing an emulsifier concentration of 1000 ppm, to the desired concentration. Further test concentrations are prepared by dilution with emulsifier containing water.
Cotton leaves (Gossypium hirsutum) are treated by being sprayed with the preparation of the active compound of the desired concentration and are infested with caterpillars of the fall army worm (Spodoptera frugiperda).
After the specified period of time mortality in % is determined. 100% means all the caterpillars have been killed and 0% means none of the caterpillars have been killed. The mortality values determined thus are recalculated using the Colby-formula (see above).

The next test has as its system Phaedon cochleariae. The test can be described thus: Phaedon cochleariae - spray test. The conditions noted are these: mortality. As to the method:
as §1, §2
Phaedon cochleariae—Spray Test
as §3, §4, §5
After the specified period of time mortality in % is determined. 100% means all the beetle larvae have been killed and 0% means none of the beetle larvae have been killed. The mortality values determined thus are recalculated using the Colby-formula (see above).

Another test has as its system Aphis gossypii. As to the kind of experiment: Aphis gossypii - spray test. Conditions: 0.4 ppm, mortality. Here is the method: as §1, §2
Aphis gossypii—Spray Test
as §3, §4
To produce a suitable preparation of active compound, 1 part by weight of active compound is mixed with the stated amount of solvent and is diluted with water, containing an emulsifier concentration of 1000 ppm, to the desired concentration. […]
After the specified period of time the mortality in % is determined. […] The mortality values determined thus are recalculated using the Colby-formula (see above).

Regarding `CN1COCN(Cc2cnc(Cl)s2)C1=N[N+](=O)[O-]` (mixture of isomers) [Thiametoxam, (EZ)-3-(2-chloro-1,3-thiazol-5-ylmethyl)-5-methyl-1,3,5-oxadiazinan-4-ylidene(nitro)amine], the “Efficacy in % after 2 days” value in the test on Tetranychus urticae (0.1 g ai/ha), in the test on Tetranychus urticae (0.4 g ai/ha) and in the test on Tetranychus urticae (1.6 g ai/ha) was 0% in each case.
Regarding `CNC(=N[N+](=O)[O-])NCC1CCOC1` (racemic) [Dinotefuran, (EZ)-(RS)-1-methyl-2-nitro-3-(tetrahydro-3-furylmethyl)guanidine], the “Efficacy in % after 6 days” value in the test with Tetranychus urticae (0.2 g ai/ha, after 6 days) came to 0%.
For `C/C(=N\C#N)N(C)Cc1ccc(Cl)nc1` [Acetamiprid, (E)-N^1-[(6-chloro-3-pyridyl)methyl]-N^2-cyano-N-methylacetamidine], the “Efficacy in % after 2 days” value in the test on Tetranychus urticae (0.4 g ai/ha) stood at 0%; with Tetranychus urticae (1.6 g ai/ha) it was 0%; in the test with Tetranychus urticae (6.4 g ai/ha) it was 0%; in the test with Spodoptera frugiperda (48 ppm) it was 0%; in the test on Spodoptera frugiperda (96 ppm) it was 20%. The “Efficacy in % after 3 days” value in the test on Spodoptera frugiperda (48 ppm) was determined as 0%; in the test on Spodoptera frugiperda (96 ppm), 40%. The “Efficacy in % after 6 days” value came out at 10% in the test with Spodoptera frugiperda (48 ppm) and 50% in the test on Spodoptera frugiperda (96 ppm). Further, the “Efficacy in % after 1 day” value in the test on Spodoptera frugiperda (96 ppm) stood at 10%.
Take `CN/C(=N\[N+](=O)[O-])NCc1cnc(Cl)s1` [Clothianidin, (E)-1-(2-chloro-1,3-thiazol-5-ylmethyl)-3-methyl-2-nitroguanidine]: the “Efficacy in % after 1 day” value is given as 10% with Phaedon cochleariae (2 ppm), 45% in the test with Phaedon cochleariae (8 ppm) and 10% in the test on Spodoptera frugiperda (48 ppm). In addition, the “Efficacy in % after 2 days” value was found to be 10% in the test with Phaedon cochleariae (2 ppm) and 55% in the test on Phaedon cochleariae (8 ppm). The “Efficacy in % after 3 days” value in the test on Phaedon cochleariae (2 ppm) stood at 25%; in the test with Phaedon cochleariae (4 ppm) it was 60%; in the test on Phaedon cochleariae (8 ppm), 75%; with Spodoptera frugiperda (24 ppm), 40%.
Consider `Cc1cc(F)c(N=C2SCC(=O)N2CC(F)(F)F)cc1[S+]([O-])CC(F)(F)F` (centres unmarked) [Cpd of formula (I)], for which the “Efficacy in % after 1 day” value in the test with Phaedon cochleariae (1 ppm), in the test with Phaedon cochleariae (4 ppm), with Spodoptera frugiperda (4.8 ppm) and in the test on Spodoptera frugiperda (9.6 ppm) was 0% each time. Further, the “Efficacy in % after 2 days” value with Phaedon cochleariae (1 ppm) is recorded as 0%; with Phaedon cochleariae (4 ppm) it was 10%; with Tetranychus urticae (0.1 g ai/ha) it was 0%; in the test with Spodoptera frugiperda (4.8 ppm), 0%; in the test on Spodoptera frugiperda (9.6 ppm), 0%. For the same molecule, the “Efficacy in % after 3 days” value was found to be 0% with Phaedon cochleariae (1 ppm); 0% in the test with Phaedon cochleariae (2 ppm); 10% in the test with Phaedon cochleariae (4 ppm); 0% in the test on Spodoptera frugiperda (2.4 ppm); 0% in the test on Spodoptera frugiperda (4.8 ppm); 0% in the test on Spodoptera frugiperda (9.6 ppm). For the same molecule, the “Efficacy in % after 6 days” value in the test on Spodoptera frugiperda (4.8 ppm) and in the test with Spodoptera frugiperda (9.6 ppm) was 0% in each case.
Consider `O=C1C=C(N(Cc2ccc(Cl)nc2)CC(F)F)CO1` [Flupyradifurone, 4-[(6-chloro-3-pyridylmethyl)(2,2-difluoroethyl)amino]furan-2(5H)-one], for which the “Efficacy in % after 2 days” value with Tetranychus urticae (0.4 g ai/ha), in the test on Tetranychus urticae (1.6 g ai/ha) and in the test with Tetranychus urticae (6.4 g ai/ha) was 0% throughout.
For `O=[N+]([O-])N=C1NCCN1Cc1cnc(Cl)s1` [Imidaclothiz, (EZ)-1-(2-chloro-1,3-thiazol-5-ylmethyl)-N-nitroimidazolidin-2-ylideneamine], in the test with Aphis gossypii, the “Efficacy in % after 6 days” value stood at 20%. Moreover, the “Efficacy in % after 2 days” value in the test on Tetranychus urticae (0.8 g ai/ha), in the test with Tetranychus urticae (3.2 g ai/ha) and with Tetranychus urticae (12.8 g ai/ha) was 0% throughout.
